Assay results taken from ChEMBL document CHEMBL1201861, “Genomics of Drug Sensitity in Cancer screening data, Wellcome Trust Sanger Institute”.

Tests used:
Capan-2 = test: cells; type: functional, cell-based, Homo sapiens; details: Homo sapiens, Capan-2;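 further: Capan-2 cell growth inhibition, read out with a viability assay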
Description: SANGER: Inhibition of human Capan-2 cell growth in a cell viability assay.

Detroit 562 = test: cells; type: functional, cell-based, Homo sapiens; details: Homo sapiens, Detroit 562;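 further: growth inhibition of human Detroit 562 cells, read out by a cell viability assay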
Description: SANGER: Inhibition of human Detroit562 cell growth in a cell viability assay.

EHEB = test: cells; type: functional, cell-based, Homo sapiens; details: Homo sapiens, EHEB;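 further: growth inhibition of human EHEB cells, read out with a cell viability assay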
Description: SANGER: Inhibition of human EHEB cell growth in a cell viability assay.

GP5d = test: cells; type: functional, cell-based, Homo sapiens; details: Homo sapiens, GP5d;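 further: growth inhibition of human GP5d cells, read out with a cell viability assay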
Description: SANGER: Inhibition of human GP5d cell growth in a cell viability assay.

HCC1599 = test: cells; type: functional, cell-based, Homo sapiens; details: Homo sapiens, HCC1599;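 further: growth inhibition of HCC1599 cells, read out in a cell viability assay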
Description: SANGER: Inhibition of human HCC1599 cell growth in a cell viability assay.

HCC1806 = test: cells; type: functional, cell-based, Homo sapiens; details: Homo sapiens, HCC1806;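 further: growth inhibition of the cancer cell line, determined with a cell viability assay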
Description: SANGER: Inhibition of human HCC1806 cell growth in a cell viability assay.

HCC38 = test: cells; type: functional, cell-based, Homo sapiens; details: Homo sapiens, HCC38;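 further: cell viability assay on the human HCC38 cell line, with IC50 marking the concentration that inhibits cell growth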
Description: SANGER: Inhibition of human HCC38 cell growth in a cell viability assay.

HCT-15 = test: cells; type: functional, cell-based, Homo sapiens; details: Homo sapiens, HCT-15;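 further: cell viability readout, IC50 reflecting suppression of HCT-15 cell growth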
Description: SANGER: Inhibition of human HCT-15 cell growth in a cell viability assay.

HT-1376 = test: cells; type: functional, cell-based, Homo sapiens; details: Homo sapiens, HT-1376
Description: SANGER: Inhibition of human HT-1376 cell growth in a cell viability assay.

IM-9 = test: SANGER: Inhibition of human IM-9 cell growth in a cell viability assay.; type: functional, cell-based; details: Homo sapiens, IM-9
IST-SL2 = test: cells; type: functional, cell-based, Homo sapiens; details: Homo sapiens, IST-SL2;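 further: growth inhibition of human IST-SL2 cells, read out by a cell viability assay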
Description: SANGER: Inhibition of human IST-SL2 cell growth in a cell viability assay.

K052 = test: cells; type: functional, cell-based, Homo sapiens; details: Homo sapiens, K052;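 further: Read-out from a cell viability assay, IC50 reflecting suppression of K052 cell growth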
Description: SANGER: Inhibition of human K052 cell growth in a cell viability assay.

KOSC-2 = test: cells; type: functional, cell-based, Homo sapiens; details: Homo sapiens, KOSC-2;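 further: growth inhibition of KOSC-2 cells, read out by a cell viability assay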
Description: SANGER: Inhibition of human KOSC-2 cell growth in a cell viability assay.

KP-N-YN = test: cells; type: functional, cell-based, Homo sapiens; details: Homo sapiens, KP-N-YN;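 further: growth inhibition of KP-N-YN cells, read out with a cell viability assay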
Description: SANGER: Inhibition of human KP-N-YN cell growth in a cell viability assay.

KYSE-150 cell line = test: cells; type: functional, cell-based, Homo sapiens; details: Homo sapiens, KYSE-150;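 further: growth inhibition of human KYSE-150 cells, read out with a cell viability assay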
Description: SANGER: Inhibition of human KYSE-150 cell growth in a cell viability assay.

LP-1 = test: cells; type: functional, cell-based, Homo sapiens; details: Homo sapiens, LP-1;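 further: growth inhibition of human LP-1 cells, with the read-out taken from a cell viability assay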
Description: SANGER: Inhibition of human LP-1 cell growth in a cell viability assay.

M059J = test: cells; type: functional, cell-based, Homo sapiens; details: Homo sapiens, M059J;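 further: growth inhibition of M059J cells, read out with a cell viability assay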
Description: SANGER: Inhibition of human M059J cell growth in a cell viability assay.

MDA-MB-134-VI = test: cells; type: functional, cell-based, Homo sapiens; details: Homo sapiens, MDA-MB-134-VI
Description: SANGER: Inhibition of human MDA-MB-134-VI cell growth in a cell viability assay.

ME-180 = test: cells; type: functional, cell-based, Homo sapiens; details: Homo sapiens, ME-180;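 further: cell viability assay measuring growth inhibition of ME-180 cells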
Description: SANGER: Inhibition of human ME-180 cell growth in a cell viability assay.

MHH-ES-1 = test: cells; type: functional, cell-based, Homo sapiens; details: Homo sapiens, MHH-ES-1
Description: SANGER: Inhibition of human MHH-ES-1 cell growth in a cell viability assay.

MIA PaCa-2 = test: cells; type: functional, cell-based, Homo sapiens; details: Homo sapiens, MIA PaCa-2;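 further: growth inhibition of MIA PaCa-2 cells, read out with a cell viability assay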
Description: SANGER: Inhibition of human MIA-PaCa-2 cell growth in a cell viability assay.

NCI-H1792 = test: cells; type: functional, cell-based, Homo sapiens; details: Homo sapiens, NCI-H1792;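 further: growth inhibition of human NCI-H1792 cells, read out as cell viability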
Description: SANGER: Inhibition of human NCI-H1792 cell growth in a cell viability assay.

NCI-H1993 = test: cells; type: functional, cell-based, Homo sapiens; details: Homo sapiens, NCI-H1993;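 further: growth inhibition of the cancer cell line, assessed with a cell viability assay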
Description: SANGER: Inhibition of human NCI-H1993 cell growth in a cell viability assay.

NCI-H358 = test: cells; type: functional, cell-based, Homo sapiens; details: Homo sapiens, NCI-H358;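 further: growth inhibition of NCI-H358 human cells, read out with a cell viability assay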
Description: SANGER: Inhibition of human NCI-H358 cell growth in a cell viability assay.

NCI-H522 = test: cells; type: functional, cell-based, Homo sapiens; details: Homo sapiens, NCI-H522;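 further: cell viability assay measuring growth inhibition of human NCI-H522 cells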
Description: SANGER: Inhibition of human NCI-H522 cell growth in a cell viability assay.

NCI-H64 = test: cells; type: functional, cell-based, Homo sapiens; details: Homo sapiens, NCI-H64;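 further: growth inhibition of NCI-H64 cells, read out with a cell viability assay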
Description: SANGER: Inhibition of human NCI-H64 cell growth in a cell viability assay.

NCI-H719 = test: cells; type: functional, cell-based, Homo sapiens; details: Homo sapiens, NCI-H719;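 further: growth inhibition of the cultured cell line, read out with a viability assay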
Description: SANGER: Inhibition of human NCI-H719 cell growth in a cell viability assay.

OAW-28 = test: cells; type: functional, cell-based, Homo sapiens; details: Homo sapiens, OAW-28;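 further: growth inhibition of OAW-28 cells, read out with a cell viability assay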
Description: SANGER: Inhibition of human OAW-28 cell growth in a cell viability assay.

RMG-I = test: cells; type: functional, cell-based, Homo sapiens; details: Homo sapiens, RMG-I;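 further: growth inhibition of human RMG-I cells, read out with a cell viability assay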
Description: SANGER: Inhibition of human RMG-I cell growth in a cell viability assay.

RPMI-2650 = test: cells; type: functional, cell-based, Homo sapiens; details: Homo sapiens, RPMI-2650
Description: SANGER: Inhibition of human RPMI-2650 cell growth in a cell viability assay.

SJRH30 = test: cells; type: functional, cell-based, Homo sapiens; details: Homo sapiens, SJRH30;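 further: growth inhibition of human SJRH30 cells, read out with a cell viability assay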
Description: SANGER: Inhibition of human SJRH30 cell growth in a cell viability assay.

SK-HEP1 = test: cells; type: functional, cell-based, Homo sapiens, SK-HEP-1; details: Homo sapiens, SK-HEP1;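 further: cell viability readout used to quantify reduction in proliferation of human SK-HEP-1 cells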
Description: SANGER: Inhibition of human SK-HEP-1 cell growth in a cell viability assay.

SK-OV-3 = test: cells; type: functional, cell-based, Homo sapiens; details: Homo sapiens, SK-OV-3;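 further: growth inhibition of SK-OV-3 human cells, read out with a cell viability assay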
Description: SANGER: Inhibition of human SK-OV-3 cell growth in a cell viability assay.

A 172 = test: cells; type: functional, cell-based, Homo sapiens; details: Homo sapiens, A 172;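 further: growth inhibition of A172 cells, measured with a cell viability readout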
Description: SANGER: Inhibition of human A172 cell growth in a cell viability assay.

ABC-1 = test: cells; type: functional, cell-based, Homo sapiens; details: Homo sapiens, ABC-1;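 further: growth inhibition of human ABC-1 cells, read out by a cell viability assay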
Description: SANGER: Inhibition of human ABC-1 cell growth in a cell viability assay.

BFTC-905 = test: cells; type: functional, cell-based, Homo sapiens; details: Homo sapiens, BFTC-905
Description: SANGER: Inhibition of human BFTC-905 cell growth in a cell viability assay.

BL-70 = test: SANGER: Inhibition of human BL-70 cell growth in a cell viability assay.; type: functional, cell-based; details: Homo sapiens, BL-70
CAKI-1 = test: cells; type: functional, cell-based, Homo sapiens; details: Homo sapiens, CAKI-1;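 further: growth inhibition of CAKI-1 cells, measured by a cell viability assay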
Description: SANGER: Inhibition of human CAKI-1 cell growth in a cell viability assay.

CAL-12T = test: cells; type: functional, cell-based, Homo sapiens; details: Homo sapiens, CAL-12T;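 further: growth inhibition of human CAL-12T cells, read out with a cell viability assay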
Description: SANGER: Inhibition of human CAL-12T cell growth in a cell viability assay.

CAL-51 = test: cells; type: functional, cell-based, Homo sapiens; details: Homo sapiens, CAL-51;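 further: human CAL-51 cell line, growth inhibition read out via a cell viability assay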
Description: SANGER: Inhibition of human CAL-51 cell growth in a cell viability assay.

CAL-85-1 = test: cells; type: functional, cell-based, Homo sapiens; details: Homo sapiens, CAL-85-1;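 further: growth inhibition of human CAL-85-1 cells, read out with a cell viability assay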
Description: SANGER: Inhibition of human CAL-85-1 cell growth in a cell viability assay.

U-698-M = test: cells; type: functional, cell-based, Homo sapiens; details: Homo sapiens, U-698-M
Description: SANGER: Inhibition of human U-698-M cell growth in a cell viability assay.

U-251 = test: cells; type: functional, cell-based, Homo sapiens; details: Homo sapiens, U-251;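 further: growth inhibition of human U-251 cells, read out through a cell viability assay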
Description: SANGER: Inhibition of human U251 cell growth in a cell viability assay.

UACC-893 = test: cells; type: functional, cell-based, Homo sapiens; details: Homo sapiens, UACC-893
Description: SANGER: Inhibition of human UACC-893 cell growth in a cell viability assay.

CHP-212 = test: cells; type: functional, cell-based, Homo sapiens; details: Homo sapiens, CHP-212
Description: SANGER: Inhibition of human CHP-212 cell growth in a cell viability assay.

In the case of `CCC/C=C/C=C/C(=O)O[C@H]1/C(=C/C(=O)OC)C[C@H]2C[C@H]([C@@H](C)O)OC(=O)C[C@H](O)C[C@@H]3C[C@H](OC(C)=O)C(C)(C)[C@](O)(C[C@@H]4C/C(=C/C(=O)OC)C[C@H](/C=C/C(C)(C)[C@]1(O)O2)O4)O3` [BRYOSTATIN 1], the IC50 (Capan-2) is reported as greater than 8 nM, the IC50 (Detroit 562) is reported as greater than 8 nM and the IC50 (EHEB) is reported as greater than 8 nM. The IC50 (GP5d) was greater than 8 nM, the IC50 (HCC1599) was greater than 8 nM and the IC50 (HCC1806) was greater than 8 nM. For the same compound, the IC50 (HCC38) was greater than 8 nM, the IC50 (HCT-15) was greater than 8 nM and the IC50 (HT-1376) was greater than 8 nM. For the same compound, the IC50 (IM-9) was greater than 8 nM, the IC50 (IST-SL2) was greater than 8 nM and the IC50 (K052) was greater than 8 nM. The IC50 (KOSC-2) was greater than 8 nM, the IC50 (KP-N-YN) was greater than 8 nM and the IC50 (KYSE-150 cell line) was greater than 8 nM. The IC50 (LP-1) was greater than 8 nM, the IC50 (M059J) was 2 nM and the IC50 (MDA-MB-134-VI) was greater than 8 nM. It also gave an IC50 (ME-180) greater than 8 nM, an IC50 (MHH-ES-1) greater than 8 nM and an IC50 (MIA PaCa-2) greater than 8 nM. It also gave an IC50 (NCI-H1792) greater than 8 nM, an IC50 (NCI-H1993) greater than 8 nM and an IC50 (NCI-H358) greater than 8 nM. For the same compound, the IC50 (NCI-H522) was greater than 8 nM, the IC50 (NCI-H64) was greater than 8 nM and the IC50 (NCI-H719) was greater than 8 nM. The IC50 (OAW-28) was greater than 8 nM, the IC50 (RMG-I) was greater than 8 nM and the IC50 (RPMI-2650) was greater than 8 nM. It also gave an IC50 (SJRH30) greater than 8 nM, an IC50 (SK-HEP1) greater than 8 nM and an IC50 (SK-OV-3) greater than 8 nM. The IC50 (A 172) was greater than 8 nM, the IC50 (ABC-1) was greater than 8 nM and the IC50 (BFTC-905) was greater than 8 nM. It also gave an IC50 (BL-70) greater than 8 nM, an IC50 (CAKI-1) greater than 8 nM and an IC50 (CAL-12T) greater than 8 nM. The IC50 (CAL-51) was greater than 8 nM, the IC50 (CAL-85-1) was 5.52 nM and the IC50 (U-698-M) was greater than 8 nM. For the same compound, the IC50 (U-251) was greater than 8 nM, the IC50 (UACC-893) was greater than 8 nM and the IC50 (CHP-212) was greater than 8 nM.
Compound `COc1cccc2c1C(=O)c1c(O)c3c(c(O)c1C2=O)C[C@@](O)(C(=O)CO)C[C@@H]3O[C@H]1C[C@H](N)[C@H](O)[C@H](C)O1` [DOXORUBICIN] has an IC50 (Capan-2) of 898 nM, an IC50 (Detroit 562) of 231 nM and an IC50 (EHEB) of 113 nM. For the same compound, the IC50 (GP5d) was 49.1 nM, the IC50 (HCC1599) was 72.5 nM and the IC50 (HCC1806) was 75 nM. The IC50 (HCC38) was 42.5 nM, the IC50 (HCT-15) was greater than 1020 nM and the IC50 (HT-1376) was 189 nM. For the same compound, the IC50 (IM-9) was 51.4 nM, the IC50 (IST-SL2) was 73.8 nM and the IC50 (K052) was greater than 1020 nM. For the same compound, the IC50 (KOSC-2) was 249 nM, the IC50 (KP-N-YN) was greater than 1020 nM and the IC50 (KYSE-150 cell line) was 27.8 nM. It also gave an IC50 (LP-1) greater than 1020 nM, an IC50 (M059J) of 31.4 nM and an IC50 (MDA-MB-134-VI) greater than 1020 nM. The IC50 (ME-180) was 186 nM, the IC50 (MHH-ES-1) was 21.6 nM and the IC50 (MIA PaCa-2) was 34.2 nM. For the same compound, the IC50 (NCI-H1792) was 572 nM, the IC50 (NCI-H1993) was 1000 nM and the IC50 (NCI-H358) was 41.1 nM. It also gave an IC50 (NCI-H522) of 51.9 nM, an IC50 (NCI-H64) of 133 nM and an IC50 (NCI-H719) of 39.7 nM. The IC50 (OAW-28) was 179 nM, the IC50 (RMG-I) was 514 nM and the IC50 (RPMI-2650) was 13.7 nM. The IC50 (SJRH30) was 173 nM, the IC50 (SK-HEP1) was 25.9 nM and the IC50 (SK-OV-3) was 50.1 nM. It also gave an IC50 (A 172) of 80.5 nM, an IC50 (ABC-1) of 83.4 nM and an IC50 (BFTC-905) of 16.2 nM. For the same compound, the IC50 (BL-70) was 342 nM, the IC50 (CAKI-1) was 375 nM and the IC50 (CAL-12T) was 20.6 nM. For the same compound, the IC50 (CAL-51) was 17.3 nM, the IC50 (CAL-85-1) was 44.5 nM and the IC50 (U-698-M) was 139 nM. For the same compound, the IC50 (U-251) was 64.9 nM, the IC50 (UACC-893) was 522 nM and the IC50 (CHP-212) was 35 nM.
Compound `O=C(O)c1ccc(-c2c[nH]c3ncc(-c4ccccc4)cc23)cc1C1CCCC1` [GSK-650394] has an IC50 (Capan-2) greater than 16000 nM, an IC50 (Detroit 562) of 12800 nM and an IC50 (EHEB) greater than 16000 nM. The IC50 (GP5d) was greater than 16000 nM, the IC50 (HCC1599) was greater than 16000 nM and the IC50 (HCC1806) was greater than 16000 nM. For the same compound, the IC50 (HCC38) was greater than 16000 nM, the IC50 (HCT-15) was 3630 nM and the IC50 (HT-1376) was greater than 16000 nM. It also gave an IC50 (IM-9) greater than 16000 nM, an IC50 (IST-SL2) of 4830 nM and an IC50 (K052) greater than 16000 nM. It also gave an IC50 (KOSC-2) greater than 16000 nM, an IC50 (KP-N-YN) of 15800 nM and an IC50 (KYSE-150 cell line) of 10400 nM. It also gave an IC50 (LP-1) greater than 16000 nM, an IC50 (M059J) greater than 16000 nM and an IC50 (MDA-MB-134-VI) greater than 16000 nM. It also gave an IC50 (ME-180) greater than 16000 nM, an IC50 (MHH-ES-1) of 13600 nM and an IC50 (MIA PaCa-2) of 7080 nM. The IC50 (NCI-H1792) was greater than 16000 nM, the IC50 (NCI-H1993) was greater than 16000 nM and the IC50 (NCI-H358) was 6250 nM. It also gave an IC50 (NCI-H522) of 13000 nM, an IC50 (NCI-H64) greater than 16000 nM and an IC50 (NCI-H719) greater than 16000 nM. For the same compound, the IC50 (OAW-28) was greater than 16000 nM, the IC50 (RMG-I) was greater than 16000 nM and the IC50 (RPMI-2650) was greater than 16000 nM. It also gave an IC50 (SJRH30) greater than 16000 nM, an IC50 (SK-HEP1) of 6340 nM and an IC50 (SK-OV-3) greater than 16000 nM. The IC50 (A 172) was greater than 16000 nM, the IC50 (ABC-1) was 6580 nM and the IC50 (BFTC-905) was 785 nM. It also gave an IC50 (BL-70) greater than 16000 nM, an IC50 (CAKI-1) greater than 16000 nM and an IC50 (CAL-12T) of 2710 nM. It also gave an IC50 (CAL-51) of 5360 nM, an IC50 (CAL-85-1) greater than 16000 nM and an IC50 (U-698-M) greater than 16000 nM. For the same compound, the IC50 (U-251) was greater than 16000 nM, the IC50 (UACC-893) was greater than 16000 nM and the IC50 (CHP-212) was greater than 16000 nM.
